Each structure is given as a SMILES string.

One assay has as its system Listeria monocytogenes. The assay can be described thus: Antibacterial activity against Listeria monocytogenes isolated from mastitic cow milk at 100 ug/ml after 24 hr by agar well diffusion method. Particulars: read-out: IZ. It counts as functional. Background: In agar diffusion tests the substance spreads into inoculated agar from a disc or well.
Turning to `Cc1nn(-c2ccccc2)c2nc(-n3[nH]c(=O)c(C#N)c3-c3ccc(Cl)cc3)nc(-c3ccc(Cl)cc3)c12`, the zone of inhibition at 100 µg/mL was 29 mm.

As for `Cc1nn(-c2ccccc2)c2nc(-n3[nH]c(=O)c(C#N)c3-c3cccs3)nc(-c3ccc(Cl)cc3)c12`, the zone of inhibition at 100 µg/mL is 32 mm.

Consider `COc1ccc(C(=O)CSc2nc(-c3ccc(Cl)cc3)c3c(C)nn(-c4ccccc4)c3n2)cc1`, for which the zone of inhibition at 100 µg/mL is 14 mm.

Take `Cc1nn(-c2ccccc2)c2nc(NN)nc(-c3ccc(Cl)cc3)c12`: the zone of inhibition at 100 µg/mL was determined as 16 mm.

Take `Cc1nn(-c2ccccc2)c2c1c(-c1ccc(Cl)cc1)nc1nncn12`: the zone of inhibition at 100 µg/mL stood at 20 mm.

Regarding `Cc1nn(-c2ccccc2)c2nc(-n3nc(N)c(C#N)c3-c3ccc(Cl)cc3)nc(-c3ccc(Cl)cc3)c12`, the zone of inhibition at 100 µg/mL stood at 18 mm.

The test system of the next assay is Bacillus cereus. Kind of assay: Antibacterial activity against Bacillus cereus at 100 ug/ml after 24 hr by agar well diffusion method. In kind it is functional. As to conditions: read-out: IZ.
As to `Cc1nn(-c2ccccc2)c2nc(-n3[nH]c(=O)c(C#N)c3-c3ccc(Cl)cc3)nc(-c3ccc(Cl)cc3)c12`, the zone of inhibition at 100 µg/mL was 24 mm.

Consider `Cc1nn(-c2ccccc2)c2nc(-n3[nH]c(=O)c(C#N)c3-c3cccs3)nc(-c3ccc(Cl)cc3)c12`, for which the zone of inhibition at 100 µg/mL is 9 mm.

On to `COc1ccc(C(=O)CSc2nc(-c3ccc(Cl)cc3)c3c(C)nn(-c4ccccc4)c3n2)cc1`, for which the zone of inhibition at 100 µg/mL is 18 mm.

Take `Cc1nn(-c2ccccc2)c2nc(NN)nc(-c3ccc(Cl)cc3)c12`: the zone of inhibition at 100 µg/mL was 26 mm.

For the molecule `Cc1nn(-c2ccccc2)c2c1c(-c1ccc(Cl)cc1)nc1nncn12`, the zone of inhibition at 100 µg/mL stood at 22 mm.

As to `Cc1nn(-c2ccccc2)c2nc(-n3nc(N)c(C#N)c3-c3ccc(Cl)cc3)nc(-c3ccc(Cl)cc3)c12`, the zone of inhibition at 100 µg/mL is 12 mm.

In the next assay the test system is Aspergillus flavus. The assay can be described thus: Antifungal activity against Aspergillus flavus at 100 ug/ml after 48 to 72 hr by agar well diffusion method. It counts as functional. Particulars: read-out: IZ.
Consider `Cc1nn(-c2ccccc2)c2nc(-n3[nH]c(=O)c(C#N)c3-c3ccc(Cl)cc3)nc(-c3ccc(Cl)cc3)c12`, for which the zone of inhibition at 100 µg/mL worked out at 12 mm.

With `Cc1nn(-c2ccccc2)c2nc(-n3[nH]c(=O)c(C#N)c3-c3cccs3)nc(-c3ccc(Cl)cc3)c12`, the zone of inhibition at 100 µg/mL was 12 mm.

Turning to `COc1ccc(C(=O)CSc2nc(-c3ccc(Cl)cc3)c3c(C)nn(-c4ccccc4)c3n2)cc1`, the zone of inhibition at 100 µg/mL came to 12 mm.

`Cc1nn(-c2ccccc2)c2nc(NN)nc(-c3ccc(Cl)cc3)c12`: the zone of inhibition at 100 µg/mL was 0 mm.

Regarding `Cc1nn(-c2ccccc2)c2c1c(-c1ccc(Cl)cc1)nc1nncn12`, the zone of inhibition at 100 µg/mL is 0 mm.

For the molecule `Cc1nn(-c2ccccc2)c2nc(-n3nc(N)c(C#N)c3-c3ccc(Cl)cc3)nc(-c3ccc(Cl)cc3)c12`, the zone of inhibition at 100 µg/mL stood at 0 mm.

For another assay, the system named is Staphylococcus aureus. The assay can be described thus: Antibacterial activity against Staphylococcus aureus isolated from minced cow meet at 100 ug/ml after 24 hr by agar well diffusion method. It counts as functional. Particulars: read-out: IZ.
As to `Cc1nn(-c2ccccc2)c2nc(-n3[nH]c(=O)c(C#N)c3-c3ccc(Cl)cc3)nc(-c3ccc(Cl)cc3)c12`, the zone of inhibition at 100 µg/mL was 0 mm.

`Cc1nn(-c2ccccc2)c2nc(-n3[nH]c(=O)c(C#N)c3-c3cccs3)nc(-c3ccc(Cl)cc3)c12`: the zone of inhibition at 100 µg/mL is 14 mm.

In the case of `COc1ccc(C(=O)CSc2nc(-c3ccc(Cl)cc3)c3c(C)nn(-c4ccccc4)c3n2)cc1`, the zone of inhibition at 100 µg/mL was determined as 16 mm.

For the molecule `Cc1nn(-c2ccccc2)c2nc(NN)nc(-c3ccc(Cl)cc3)c12`, the zone of inhibition at 100 µg/mL is 16 mm.

For `Cc1nn(-c2ccccc2)c2c1c(-c1ccc(Cl)cc1)nc1nncn12`, the zone of inhibition at 100 µg/mL came to 14 mm.

With `Cc1nn(-c2ccccc2)c2nc(-n3nc(N)c(C#N)c3-c3ccc(Cl)cc3)nc(-c3ccc(Cl)cc3)c12`, the zone of inhibition at 100 µg/mL was determined as 12 mm.

In a further assay the test system is Salmonella typhimurium. The assay can be described thus: Antibacterial activity against Salmonella enterica subsp. enterica serovar Typhimurium isolated from mastitic cow milk at 100 ug/ml after 24 hr by agar well diffusion method. It counts as functional. As to conditions: read-out: IZ.
`Cc1nn(-c2ccccc2)c2nc(-n3[nH]c(=O)c(C#N)c3-c3ccc(Cl)cc3)nc(-c3ccc(Cl)cc3)c12`: the zone of inhibition at 100 µg/mL came out at 9 mm.

For the molecule `Cc1nn(-c2ccccc2)c2nc(-n3[nH]c(=O)c(C#N)c3-c3cccs3)nc(-c3ccc(Cl)cc3)c12`, the zone of inhibition at 100 µg/mL turned out to be 10 mm.

On to `COc1ccc(C(=O)CSc2nc(-c3ccc(Cl)cc3)c3c(C)nn(-c4ccccc4)c3n2)cc1`, for which the zone of inhibition at 100 µg/mL was found to be 13 mm.

On to `Cc1nn(-c2ccccc2)c2nc(NN)nc(-c3ccc(Cl)cc3)c12`, for which the zone of inhibition at 100 µg/mL came out at 13 mm.

Take `Cc1nn(-c2ccccc2)c2c1c(-c1ccc(Cl)cc1)nc1nncn12`: the zone of inhibition at 100 µg/mL came out at 13 mm.

Take `Cc1nn(-c2ccccc2)c2nc(-n3nc(N)c(C#N)c3-c3ccc(Cl)cc3)nc(-c3ccc(Cl)cc3)c12`: the zone of inhibition at 100 µg/mL worked out at 9 mm.

The next assay has as its system Escherichia coli. Kind of assay: Antibacterial activity against Escherichia coli O157:H7 isolated from poultry at 100 ug/ml after 24 hr by agar well diffusion method. It counts as functional. Particulars: O157:H7, 24 h, read-out: IZ.
Regarding `Cc1nn(-c2ccccc2)c2nc(-n3[nH]c(=O)c(C#N)c3-c3ccc(Cl)cc3)nc(-c3ccc(Cl)cc3)c12`, the zone of inhibition at 100 µg/mL stood at 0 mm.

Regarding `Cc1nn(-c2ccccc2)c2nc(-n3[nH]c(=O)c(C#N)c3-c3cccs3)nc(-c3ccc(Cl)cc3)c12`, the zone of inhibition at 100 µg/mL worked out at 0 mm.

As to `COc1ccc(C(=O)CSc2nc(-c3ccc(Cl)cc3)c3c(C)nn(-c4ccccc4)c3n2)cc1`, the zone of inhibition at 100 µg/mL turned out to be 16 mm.

Regarding `Cc1nn(-c2ccccc2)c2nc(NN)nc(-c3ccc(Cl)cc3)c12`, the zone of inhibition at 100 µg/mL was 10 mm.

Consider `Cc1nn(-c2ccccc2)c2c1c(-c1ccc(Cl)cc1)nc1nncn12`, for which the zone of inhibition at 100 µg/mL worked out at 10 mm.

With `Cc1nn(-c2ccccc2)c2nc(-n3nc(N)c(C#N)c3-c3ccc(Cl)cc3)nc(-c3ccc(Cl)cc3)c12`, the zone of inhibition at 100 µg/mL came to 0 mm.

In a further assay the test system is Candida albicans. Kind of assay: Antifungal activity against Candida albicans at 100 ug/ml after 48 to 72 hr by agar well diffusion method. It counts as functional. Particulars: read-out: IZ.
As to `Cc1nn(-c2ccccc2)c2nc(-n3[nH]c(=O)c(C#N)c3-c3ccc(Cl)cc3)nc(-c3ccc(Cl)cc3)c12`, the zone of inhibition at 100 µg/mL amounted to 24 mm.

In the case of `Cc1nn(-c2ccccc2)c2nc(-n3[nH]c(=O)c(C#N)c3-c3cccs3)nc(-c3ccc(Cl)cc3)c12`, the zone of inhibition at 100 µg/mL came out at 20 mm.

`COc1ccc(C(=O)CSc2nc(-c3ccc(Cl)cc3)c3c(C)nn(-c4ccccc4)c3n2)cc1`: the zone of inhibition at 100 µg/mL was 26 mm.

For the molecule `Cc1nn(-c2ccccc2)c2nc(NN)nc(-c3ccc(Cl)cc3)c12`, the zone of inhibition at 100 µg/mL came out at 16 mm.

As to `Cc1nn(-c2ccccc2)c2c1c(-c1ccc(Cl)cc1)nc1nncn12`, the zone of inhibition at 100 µg/mL was 18 mm.

In the case of `Cc1nn(-c2ccccc2)c2nc(-n3nc(N)c(C#N)c3-c3ccc(Cl)cc3)nc(-c3ccc(Cl)cc3)c12`, the zone of inhibition at 100 µg/mL is 9 mm.

For the next assay, the system named is Pseudomonas aeruginosa. The assay can be described thus: Antibacterial activity against Pseudomonas aeruginosa minced cow meet at 100 ug/ml after 24 hr by agar well diffusion method. In kind it is functional. As to conditions: read-out: IZ.
For `Cc1nn(-c2ccccc2)c2nc(-n3[nH]c(=O)c(C#N)c3-c3ccc(Cl)cc3)nc(-c3ccc(Cl)cc3)c12`, the zone of inhibition at 100 µg/mL was 14 mm.

As for `Cc1nn(-c2ccccc2)c2nc(-n3[nH]c(=O)c(C#N)c3-c3cccs3)nc(-c3ccc(Cl)cc3)c12`, the zone of inhibition at 100 µg/mL turned out to be 14 mm.

As for `COc1ccc(C(=O)CSc2nc(-c3ccc(Cl)cc3)c3c(C)nn(-c4ccccc4)c3n2)cc1`, the zone of inhibition at 100 µg/mL worked out at 18 mm.

Consider `Cc1nn(-c2ccccc2)c2nc(NN)nc(-c3ccc(Cl)cc3)c12`, for which the zone of inhibition at 100 µg/mL came out at 16 mm.

In the case of `Cc1nn(-c2ccccc2)c2c1c(-c1ccc(Cl)cc1)nc1nncn12`, the zone of inhibition at 100 µg/mL was 12 mm.

Take `Cc1nn(-c2ccccc2)c2nc(-n3nc(N)c(C#N)c3-c3ccc(Cl)cc3)nc(-c3ccc(Cl)cc3)c12`: the zone of inhibition at 100 µg/mL was found to be 9 mm.

For the origin of these results see ChEMBL document CHEMBL3045647, “Synthesis, anti-microbial evaluation, and molecular modeling of new pyrazolo[3,4-d]pyrimidine derivatives” (2012).
